According to PubChem BioAssay AID467 (The Scripps Research Institute Molecular Screening Center, 2006):
Active and inactive are the calls of the source. How the calls were made is not given here.

Tested on: parental cell line counter screen, S1P1 agonist assay readout
Test: signal in parental cells, counter-screen for S1P1 agonist project (AID 467);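 further: agonist potency measured against forskolin stimulation plus an EC20 level of SEW2871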

`Cc1ccccc1-c1nnc(SCc2ccccc2F)o1` was tested, and the EC50 was > 95.1 µM (inactive).

For `N#Cc1nc(COc2ccc(Cl)cc2Cl)oc1N1CCN(c2ccccc2)CC1`, the EC50 was > 95.1 µM (inactive).

`CCCOC(=O)c1[nH]c2c(c1C)C(=O)CC(c1cc(OC)c(OC)c(OC)c1)C2` (stereo not given) was tested, and the EC50 was 35.5 µM (inactive).

In the case of `CCc1ccc(-c2nc(-c3ccncc3)no2)cc1`, the EC50 is reported as > 95.1 µM (inactive).

In the case of `O=C(Nc1nc2c(s1)CCCC2)c1cc2n(n1)C(C(F)(F)F)CC(C1CC1)N2` (stereo not given), the EC50 is reported as > 95.1 µM (inactive).

For `O=C(Nc1ccc(-c2noc(CCc3ccccc3)n2)cc1)c1cccnc1`, the EC50 was > 30 µM (inactive).

`CCc1ccc(N(CC)c2ncnc3nc[nH]c23)cc1` was tested, and the EC50 was > 95.1 µM (inactive).

In the case of `COCC(=O)Nc1cccc(C(F)(F)F)c1`, the EC50 is reported as > 95.1 µM (inactive).

In the case of `Cn1c(SCC(=O)Nc2ccc(N3CCOCC3)c(Cl)c2)nnc1-c1ccccc1`, the EC50 is reported as > 95.1 µM (inactive).

With `O=C(c1ccco1)N1CCN(c2ncnc3c2[nH]c2ccc(Br)cc23)CC1` the EC50 was > 10 µM (inactive).

Work on `N#Cc1ccc(NC(=O)Nc2ccc(Cl)cc2)cc1` yielded an EC50 of 9.6 µM.

For `CC1Cc2ccccc2N1c1ncnc2nc[nH]c12` (stereo not given), the EC50 was 11.4 µM (inactive).

`CC(C)Cn1c(N)c(C(=O)CSc2ccc3c(c2)OCCO3)c(=O)n(C)c1=O` was tested, and the EC50 was 88.5 µM (inactive).

With `CCc1cc2c(N3CCN(c4ccccc4)CC3)ncnc2s1` the EC50 was 16.3 µM (inactive).

In the case of `CCC(=NC(C)c1ccccc1)c1c(O)n(C)c(=O)n(C)c1=O` (stereo not given), the EC50 is reported as > 30 µM (inactive).

With `OC1(c2cccc(C(F)(F)F)c2)CCN(c2ncnc3c2[nH]c2ccc(F)cc23)CC1` the EC50 was > 3 µM (inactive).

In the case of `CCOc1ccc(C(=O)Nc2c(C(N)=O)oc3ccccc23)cc1`, the EC50 is reported as > 95.1 µM (inactive).

With `Cc1cc(C(=O)COC(=O)c2csc3c2CCCC3)c(C)n1C` the EC50 was > 95.1 µM (inactive).

For `Clc1ccc(OCc2nc(-c3ccncc3)no2)c(Br)c1`, the EC50 was > 30 µM (inactive).

For `CCCOc1ccc(-c2nnc(-c3ccncc3)o2)cc1`, the EC50 was > 95.1 µM (inactive).

`Cc1cc(C(=O)CSc2nnc(-c3ccco3)o2)c(C)n1-c1ccc2c(c1)OCCO2` was tested, and the EC50 was > 10 µM (inactive).

In the case of `CCOc1ccc(-c2nc(CSCC(=O)N3CCN(c4cccc(OC)c4)CC3)c(C)o2)cc1`, the EC50 is reported as 19.4 µM (inactive).

In the case of `COc1ccc2[nH]c(=O)c3c(c2c1)OC(C)(C)C=C3`, the EC50 is reported as 6.75 µM.

For `COc1ccc(CNc2cc(C)nc3ncnn23)c(OC)c1`, the EC50 was > 95.1 µM (inactive).

With `O=C(OC1CCCCC1)c1ccc(NC(=O)c2ccco2)cc1` the EC50 was > 30 µM (inactive).

In the case of `COc1ccccc1-c1nc(-c2ccc(Br)cc2)no1`, the EC50 is reported as > 95.1 µM (inactive).

`Cc1ccc2[nH]c3c(N4CCN(Cc5ccc6c(c5)OCO6)CC4)ncnc3c2c1` was tested, and the EC50 was > 95.1 µM (inactive).

With `COc1ccc(-c2cc(C(=O)NC3CCCC3)no2)cc1OC` the EC50 was > 95.1 µM (inactive).

`Cc1cc(C(=O)CSc2nnc(-c3ccncc3)n2-c2ccccc2)c(C)n1C` was tested, and the EC50 was > 95.1 µM (inactive).

For `Cc1ccc(NC(=O)c2cc(-c3ccco3)on2)cc1C`, the EC50 was > 95.1 µM (inactive).

`CC(C)Oc1cc(O)c2c(=O)c(-c3ccc(O)cc3)coc2c1` was tested, and the EC50 was 20.5 µM (inactive).

For `Cn1nc(CC(=O)Nc2ccc3c(c2)OCCO3)c2ccccc2c1=O`, the EC50 was > 30 µM (inactive).

With `Cc1cc(C(=O)CC#N)c(C)n1-c1ccc(OC(F)F)cc1` the EC50 was > 95.1 µM (inactive).

With `CCCn1c(CN2CCN(c3cccc(Cl)c3)CC2)nc2c1c(=O)n(C)c(=O)n2C` the EC50 was > 95.1 µM (inactive).

In the case of `CCCc1ccc(Oc2cn[nH]c2-c2ccc(O)cc2O)cc1`, the EC50 is reported as > 10 µM (inactive).

`O=C(CSc1nnc(Cc2csc(Nc3cccc(Cl)c3)n2)o1)N1CCc2ccccc21` was tested, and the EC50 was > 95.1 µM (inactive).

`Cn1nc(C(C)(C)C)cc1C(=O)NCc1ccc(N2CCCC2=O)cc1` was tested, and the EC50 was > 30 µM (inactive).

For `COc1ccc(-c2noc(-c3cc(C)cc(C)c3)n2)cc1OC`, the EC50 was > 95.1 µM (inactive).

In the case of `COc1ccccc1-c1nc(-c2cccc(C)c2)no1`, the EC50 is reported as > 95.1 µM (inactive).

In the case of `Cc1ccc(S(=O)(=O)Nc2cccc3ncccc23)s1`, the EC50 is reported as > 95.1 µM (inactive).
